These results are taken from article doi:10.1101/2025.08.01.668199, “Vacuolar Phosphatidylinositol 3,4,5-trisphosphate controls fusion through binding Vam7, and membrane microdomain assembly” (bioRxiv, 2025).

For assay [1], the target named is T1, Vam7^Y42A (Saccharomyces cerevisiae, UniProt P32912, Y42A).
T1 construct: GST-Vam7^Y42A
The assay can be described thus: bio-layer interferometry, biotinylated lipid on streptavidin probe. In kind it is binding. On the technique in general: BLI is a label-free optical method that tracks binding on a fibre tip over time.

Assay [2] concerns the target T2, Vam7 (Saccharomyces cerevisiae, UniProt P32912).
T2 construct: GST-Vam7
T2 sequence (P32912 1-316): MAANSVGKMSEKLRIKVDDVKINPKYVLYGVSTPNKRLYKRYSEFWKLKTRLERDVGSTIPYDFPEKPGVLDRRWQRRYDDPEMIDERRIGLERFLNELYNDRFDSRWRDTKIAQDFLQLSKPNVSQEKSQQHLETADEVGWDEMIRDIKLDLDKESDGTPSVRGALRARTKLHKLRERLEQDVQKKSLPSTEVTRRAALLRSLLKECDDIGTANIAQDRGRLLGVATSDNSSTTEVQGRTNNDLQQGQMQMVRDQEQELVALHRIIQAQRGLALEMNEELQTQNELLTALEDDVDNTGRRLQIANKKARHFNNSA
The assay is described as above. In kind it is binding.

T1 sequence (P32912 whole entry Y42A): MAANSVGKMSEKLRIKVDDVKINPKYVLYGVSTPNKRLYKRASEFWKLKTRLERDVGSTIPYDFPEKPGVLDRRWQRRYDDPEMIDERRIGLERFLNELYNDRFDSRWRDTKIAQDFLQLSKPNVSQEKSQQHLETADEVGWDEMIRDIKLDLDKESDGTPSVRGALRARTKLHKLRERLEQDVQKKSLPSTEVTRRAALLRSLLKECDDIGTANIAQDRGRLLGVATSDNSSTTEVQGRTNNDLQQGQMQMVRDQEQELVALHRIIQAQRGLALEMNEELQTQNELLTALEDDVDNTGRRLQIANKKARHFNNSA

On to PI(3,4,5)P3, for which the Kd – broadly, the concentration at which binding is half-saturated – in assay [1] is approximately 210 nM; in assay [2] it was approximately 70 nM.
PI3P showed a Kd in assay [2] of approximately 200 nM.
